From ChEMBL document CHEMBL1201862, “PubChem BioAssay data set” (2004)
The source made the active and inactive calls.

What was measured:
[1] = DRD fibroblast viability loss – cell-based, non-viral oncogenic, luminescence, dose response (AID 1934); format: functional; settings: Homo sapiens
BJ [2] = test: BJ-TERT fibroblast viability loss – cell-based, RAS-independent, luminescence, dose response (AID 1933); format: functional; settings: Homo sapiens
BJ [3] = test: BJ-TERT-LT-ST fibroblast viability loss – cell-based, RAS-independent, luminescence, dose response (AID 1935); format: functional; settings: Homo sapiens;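 note: BJ fibroblasts immortalized with TERT plus LT and ST oncogenes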
BJ [4] = test: cells; format: functional, cell-based; settings: Homo sapiens
Nonstructural protein 1 = Nonstructural protein 1 (Influenza A virus, UniProt Q194T2); format: functional, Influenza A virus (A/California/07/2009(H1N1))
[5] = molecular target: T1, Heat shock factor protein 1 (Mus musculus, UniProt P38532); test: decrease of HSF1-responsive luciferase luminescence – cell-based, NIH3T3, dose retest, confirmation (AID 2382); format: functional;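 note: NIH3T3 fibroblasts with HSF1-driven luciferase reporter stressed by proteasome inhibitor MG132; luminescence from HSF1-driven luciferase expression after 8 hours of MG132 stress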
T1 sequence (P38532 whole entry): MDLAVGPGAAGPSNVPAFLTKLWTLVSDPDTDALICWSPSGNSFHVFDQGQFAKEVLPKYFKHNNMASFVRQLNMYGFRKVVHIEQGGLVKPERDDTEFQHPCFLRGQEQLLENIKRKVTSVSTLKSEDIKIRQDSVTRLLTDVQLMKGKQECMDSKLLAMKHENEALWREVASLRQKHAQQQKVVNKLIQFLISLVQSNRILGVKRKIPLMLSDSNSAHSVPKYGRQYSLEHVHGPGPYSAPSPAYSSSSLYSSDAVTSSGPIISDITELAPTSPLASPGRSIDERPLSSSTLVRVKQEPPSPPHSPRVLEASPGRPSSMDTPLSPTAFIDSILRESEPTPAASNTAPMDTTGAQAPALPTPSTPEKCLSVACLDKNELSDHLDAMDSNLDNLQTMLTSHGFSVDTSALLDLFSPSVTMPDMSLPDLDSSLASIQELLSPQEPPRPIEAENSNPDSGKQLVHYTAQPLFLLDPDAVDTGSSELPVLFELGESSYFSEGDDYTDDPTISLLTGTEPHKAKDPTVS

Large T antigen = Large T antigen (Simian virus 40, UniProt P03070); format: functional, Betapolyomavirus macacae;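 note: Confirmatory-stage PubChem screen for compounds that inhibit SV40 T antigen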
[6] = molecular target: FAD-linked sulfhydryl oxidase ALR (Homo sapiens, UniProt P55789); test: ALR-catalysed DTT oxidation blockers – biochemical, H2O2 detection, luminescence, cherry-pick, dose response (AID 493248)
[7] = reduction of Shn3 3'UTR-driven luciferase in osteoblasts – cell-based, Clone20 osteoblasts, firefly luciferase, cherry-picked, dose response (AID 624132); format: functional;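 note: firefly luciferase luminescence from reporter carrying the Shn3 3'UTR in osteoblasts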
[8] = non-specific 3'UTR reporter inhibition in Clone20-Shn3RL – cell-based, Renilla luciferase, cherry-picked, counter-screen for Shn3 inhibitor project, dose response (AID 624133); format: functional
cells = format: functional
[9] = THP-1 cell cytotoxicity, dose response, cytotoxicity control for non-replicating M. tuberculosis project (AID 489025); format: functional
[10] = viability of uninfected HEp-2 cells – cell-based, HTS, cytotoxicity control for RSV inhibitor project, dose response (AID 2410); format: functional; settings: human respiratory syncytial virus
Protein skinhead-1 = molecular target: T2, Protein skinhead-1 (Caenorhabditis elegans, UniProt P34707); format: functional
T2 sequence (P34707 whole entry): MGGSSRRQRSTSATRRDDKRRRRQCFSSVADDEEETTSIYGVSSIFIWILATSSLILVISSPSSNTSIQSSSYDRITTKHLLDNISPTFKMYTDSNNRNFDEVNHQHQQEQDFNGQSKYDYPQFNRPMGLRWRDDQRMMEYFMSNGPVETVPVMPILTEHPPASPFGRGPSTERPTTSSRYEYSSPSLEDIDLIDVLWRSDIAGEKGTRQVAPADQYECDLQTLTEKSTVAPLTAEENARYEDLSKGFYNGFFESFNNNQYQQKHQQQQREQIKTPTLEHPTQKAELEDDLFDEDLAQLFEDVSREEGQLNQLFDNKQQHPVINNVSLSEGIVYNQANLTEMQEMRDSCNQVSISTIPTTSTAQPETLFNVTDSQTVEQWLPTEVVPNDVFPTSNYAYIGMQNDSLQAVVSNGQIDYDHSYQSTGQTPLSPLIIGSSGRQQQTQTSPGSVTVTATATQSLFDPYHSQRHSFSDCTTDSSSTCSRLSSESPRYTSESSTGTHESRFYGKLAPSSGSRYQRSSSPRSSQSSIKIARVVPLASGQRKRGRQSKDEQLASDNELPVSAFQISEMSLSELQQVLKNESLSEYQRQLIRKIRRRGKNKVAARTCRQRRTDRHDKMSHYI

Protein RecA = molecular target: T3, Protein RecA (Mycobacterium tuberculosis, UniProt P9WHJ3); test: Fluorescence Cell-Free Homogeneous Dose Retest to Identify Inhibitors of RecA-Intein Splicing Activity. [Related pubchem assays (depositor defined):AID2097, AID2223, AID489010, AID492950]; format: functional
T3 sequence (P9WHJ3 whole entry): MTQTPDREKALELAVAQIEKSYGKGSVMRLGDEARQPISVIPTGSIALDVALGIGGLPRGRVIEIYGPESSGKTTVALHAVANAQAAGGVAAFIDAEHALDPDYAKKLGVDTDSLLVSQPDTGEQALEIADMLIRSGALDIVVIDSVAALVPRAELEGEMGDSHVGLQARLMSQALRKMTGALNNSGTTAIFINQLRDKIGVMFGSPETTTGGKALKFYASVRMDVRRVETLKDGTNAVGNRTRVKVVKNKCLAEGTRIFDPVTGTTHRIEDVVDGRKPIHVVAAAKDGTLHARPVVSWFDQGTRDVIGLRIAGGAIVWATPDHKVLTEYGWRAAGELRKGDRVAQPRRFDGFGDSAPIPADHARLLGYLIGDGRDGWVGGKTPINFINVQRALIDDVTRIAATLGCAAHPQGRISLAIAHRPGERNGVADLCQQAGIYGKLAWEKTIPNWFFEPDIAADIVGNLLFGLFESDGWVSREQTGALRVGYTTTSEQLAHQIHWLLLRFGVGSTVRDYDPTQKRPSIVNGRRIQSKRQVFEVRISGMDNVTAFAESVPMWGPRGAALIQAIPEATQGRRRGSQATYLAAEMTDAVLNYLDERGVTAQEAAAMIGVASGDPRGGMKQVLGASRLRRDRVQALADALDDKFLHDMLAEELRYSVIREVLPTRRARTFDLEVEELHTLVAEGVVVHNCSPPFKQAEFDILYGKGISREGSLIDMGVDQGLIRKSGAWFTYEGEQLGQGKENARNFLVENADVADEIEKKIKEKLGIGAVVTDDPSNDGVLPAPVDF

Leucine aminopeptidase = molecular target: T4, Leucine aminopeptidase (Plasmodium falciparum 3D7, UniProt Q8IL11); test: P. falciparum M17LAP inhibitors, primary screen, biochemical, fluorogenic H-Leu-NHMec substrate, 1536-well (AID 1619); format: functional
T4 sequence (Q8IL11 whole entry): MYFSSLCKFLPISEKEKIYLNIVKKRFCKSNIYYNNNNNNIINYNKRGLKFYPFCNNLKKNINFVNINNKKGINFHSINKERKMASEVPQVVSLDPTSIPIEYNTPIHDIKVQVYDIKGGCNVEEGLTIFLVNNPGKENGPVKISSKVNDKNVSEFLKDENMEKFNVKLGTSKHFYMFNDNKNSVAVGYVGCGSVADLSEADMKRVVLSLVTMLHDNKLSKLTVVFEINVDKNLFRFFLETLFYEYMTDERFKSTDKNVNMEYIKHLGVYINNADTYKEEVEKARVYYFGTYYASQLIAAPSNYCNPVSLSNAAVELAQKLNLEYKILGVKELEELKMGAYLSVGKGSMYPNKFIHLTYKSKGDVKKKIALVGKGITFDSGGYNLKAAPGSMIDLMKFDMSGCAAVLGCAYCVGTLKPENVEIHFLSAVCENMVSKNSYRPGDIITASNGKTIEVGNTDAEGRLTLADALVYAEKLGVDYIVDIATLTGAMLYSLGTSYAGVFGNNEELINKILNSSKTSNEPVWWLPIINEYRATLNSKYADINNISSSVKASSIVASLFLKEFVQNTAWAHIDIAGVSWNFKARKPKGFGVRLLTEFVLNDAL

[11] = Luminescence Cell-Based Dose Retest to Confirm Inhibitors of Cancer Stem Cells. [Related pubchem assays (depositor defined):AID2717, AID2721]; format: functional; settings: Homo sapiens
[12] = molecular target: T5, Rac GTPase-activating protein 1 (Homo sapiens, UniProt Q9H0H5); test: blockers of MgcRacGAP-driven Rac1 GTP hydrolysis – biochemical, ADP Hunter fluorescence, primary and confirmatory, confirmation (AID 624330); format: functional
T5 sequence (Q9H0H5 whole entry): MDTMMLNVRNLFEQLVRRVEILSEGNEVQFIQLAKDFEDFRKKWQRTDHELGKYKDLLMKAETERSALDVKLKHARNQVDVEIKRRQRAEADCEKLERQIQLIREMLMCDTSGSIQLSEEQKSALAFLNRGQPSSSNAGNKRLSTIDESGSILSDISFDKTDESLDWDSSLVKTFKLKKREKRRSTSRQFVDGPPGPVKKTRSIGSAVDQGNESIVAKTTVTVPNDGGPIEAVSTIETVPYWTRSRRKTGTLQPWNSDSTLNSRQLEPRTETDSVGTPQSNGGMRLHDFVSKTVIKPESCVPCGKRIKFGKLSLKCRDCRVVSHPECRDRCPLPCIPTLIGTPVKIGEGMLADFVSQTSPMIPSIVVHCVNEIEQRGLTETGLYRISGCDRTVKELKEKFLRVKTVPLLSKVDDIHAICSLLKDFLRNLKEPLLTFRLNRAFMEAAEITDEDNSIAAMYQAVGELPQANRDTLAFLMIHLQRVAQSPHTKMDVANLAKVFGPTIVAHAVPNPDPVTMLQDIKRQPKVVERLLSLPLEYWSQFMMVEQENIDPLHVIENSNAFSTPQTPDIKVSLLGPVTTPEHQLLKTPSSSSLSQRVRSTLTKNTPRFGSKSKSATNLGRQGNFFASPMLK

Chain of Large T antigen (P03070 whole entry): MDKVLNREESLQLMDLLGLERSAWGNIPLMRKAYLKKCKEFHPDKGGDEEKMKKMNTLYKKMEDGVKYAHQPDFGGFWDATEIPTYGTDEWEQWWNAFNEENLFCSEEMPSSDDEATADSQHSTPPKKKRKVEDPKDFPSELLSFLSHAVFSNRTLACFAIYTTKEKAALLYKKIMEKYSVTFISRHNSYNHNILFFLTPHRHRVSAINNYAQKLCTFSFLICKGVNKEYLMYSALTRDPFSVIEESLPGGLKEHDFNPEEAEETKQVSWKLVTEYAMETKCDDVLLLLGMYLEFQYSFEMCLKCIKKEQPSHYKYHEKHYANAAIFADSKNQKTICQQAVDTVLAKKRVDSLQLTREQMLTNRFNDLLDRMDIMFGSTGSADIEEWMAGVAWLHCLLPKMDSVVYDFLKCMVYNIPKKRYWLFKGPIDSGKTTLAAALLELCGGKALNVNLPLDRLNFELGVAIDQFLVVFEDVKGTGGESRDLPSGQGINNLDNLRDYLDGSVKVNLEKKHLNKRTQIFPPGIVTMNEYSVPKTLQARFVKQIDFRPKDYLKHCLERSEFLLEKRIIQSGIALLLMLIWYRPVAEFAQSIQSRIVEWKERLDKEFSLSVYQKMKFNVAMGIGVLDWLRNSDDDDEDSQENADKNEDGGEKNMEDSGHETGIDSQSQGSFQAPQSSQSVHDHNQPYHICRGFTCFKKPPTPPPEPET
Chain of Nonstructural protein 1 (Q194T2 whole entry): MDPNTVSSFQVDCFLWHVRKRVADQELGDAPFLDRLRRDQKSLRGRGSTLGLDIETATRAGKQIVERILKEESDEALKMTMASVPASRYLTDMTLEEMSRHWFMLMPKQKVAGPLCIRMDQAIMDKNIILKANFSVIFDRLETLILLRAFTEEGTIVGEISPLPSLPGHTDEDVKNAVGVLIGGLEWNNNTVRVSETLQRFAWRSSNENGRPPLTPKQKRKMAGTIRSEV
Chain of FAD-linked sulfhydryl oxidase ALR (P55789 whole entry): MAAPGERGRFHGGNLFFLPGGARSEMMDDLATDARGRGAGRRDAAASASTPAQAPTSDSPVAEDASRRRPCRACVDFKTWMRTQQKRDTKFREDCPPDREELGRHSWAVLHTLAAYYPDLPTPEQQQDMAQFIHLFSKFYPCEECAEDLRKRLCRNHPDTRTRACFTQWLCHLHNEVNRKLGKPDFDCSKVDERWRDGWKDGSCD

O=C(c1ccccc1)c1ccc(-n2ccnc2)c([N+](=O)[O-])c1
EC50 [1]: > 150 µM (not active) | EC50 (BJ [2]): > 150 µM (not active) | EC50 (BJ [3]): > 150 µM (inconclusive) | EC50 (BJ [4]): > 150 µM (not active)

CCOc1ccc2c(c1)-c1c(ssc1=S)C(C)(C)N2C
IC50 (Nonstructural protein 1): 12.8 µM (active)

COc1ccc(N2C(=O)c3ccccc3NC2c2ccc(OC)c(Cn3cc([N+](=O)[O-])cn3)c2)cc1 (stereo unspecified)
EC50 [5]: > 195 µM (not active)

Cc1ccc2[nH]c3nc(NN)nnc3c2c1
IC50 (Nonstructural protein 1): 13.5 µM (active)

Cc1ccc(C(=O)NCC(=O)NCC(=O)OCC(=O)c2ccc(F)cc2)cc1
EC50 [5]: > 195 µM (not active)

CCN1C(=O)CC(N2CCC(Nc3ccc(OC)cc3)CC2)C1=O (stereo unspecified)
IC50 (Large T antigen): 57.7 µM (active) | AC50 [6]: 2.09 µM (active)

CCOc1ccc(CC(=O)N2CCC3(CC2)NCCc2[nH]cnc23)cc1
EC50 [5]: > 195 µM (not active)

Cc1cc(-c2ccc(N=Nc3c(S(=O)(=O)O)cc4cc(S(=O)(=O)O)cc(N)c4c3O)c(C)c2)ccc1N=Nc1c(S(=O)(=O)O)cc2cc(S(=O)(=O)O)cc(N)c2c1O
IC50 (Large T antigen): 2.38 µM (active)

CN(C)S(=O)(=O)c1cccc(/N=c2\scc(-c3ccc4c(c3)NC(=O)CO4)n2CC2CCCO2)c1 (stereo unspecified)
AC50 [7]: 14 µM (active) | AC50 [8]: 22.5 µM (active)

O=C(Nc1nccs1)c1ccc(-c2ccc(Cl)cc2)o1
IC50 (cells): 25.6 µM (active) | CC50 [9]: > 40 µM (active) | CC50 [10]: > 50 µM (active) | IC50 (Protein skinhead-1): > 100 µM (inactive)

O=C(Nc1ccc(Nc2ccccc2)cc1)N1CCOCC1
IC50 (Large T antigen): 7.43 µM (active)

Cc1oc(-c2cc3c(cc2Cl)OCO3)nc1CN1CCCC1c1ccc(F)cc1 (stereo unspecified)
EC50 [5]: > 195 µM (not active)

Cc1ncc([N+](=O)[O-])n1CC(=O)Nc1ccc(F)cc1
EC50 [5]: 12.3 µM (active)

Cc1ccc(NC(=O)COc2ccc(-n3ccnc3)cc2)cc1Cl
IC50 (cells): 25.5 µM (active) | CC50 [9]: > 40 µM (active)

CC(C)[C@H](NC(=O)Nc1ccc(Oc2ccccc2)cc1)C(=O)O
EC50 (Protein RecA): > 380 µM (inactive) | IC50 (Leucine aminopeptidase): 15.7 µM (active)

COc1ccc(S(=O)(=O)N2CCCCCC2)cc1C(=O)OCC(=O)NC(C)(C)C
EC50 [5]: > 195 µM (not active)

Cc1ccc(S(=O)(=O)NC2=C(N3CCN(Cc4ccccc4)CC3)C(=O)c3ccccc3C2=O)cc1
IC50 (Nonstructural protein 1): 22.4 µM (active)

Cc1cc(C)cc(-n2c(C)cc(C(=S)N3CCOCC3)c2C)c1
IC50 (Nonstructural protein 1): 95.6 µM (active)

CCCS(=O)(=O)c1c(S(=O)(=O)CCC)c2c(C)cccn2c1C(=O)N/N=C/c1cc(O)cc(O)c1
EC50 [1]: 27 µM (active) | AC50 [11]: 2.52 µM (active) | EC50 (BJ [2]): 23.5 µM (active) | EC50 (BJ [3]): 18.1 µM (active) | EC50 (BJ [4]): 20.2 µM (active)

Cc1nc2cc(N=NN(C)C)ccc2[nH]1
IC50 (Large T antigen): > 100 µM (active)

Cc1ccc(OCC(=O)NCCNC(=O)c2ccco2)cc1C
EC50 [5]: > 195 µM (not active)

CC1=CC(C)(C)N2C(=O)C(=O)c3cc(OC(=O)c4ccco4)cc1c32
EC50 [1]: 11.2 µM (inconclusive) | EC50 (BJ [2]): > 150 µM (not active) | EC50 (BJ [3]): 11.3 µM (inconclusive) | EC50 (BJ [4]): 11.6 µM (active)

COc1cc2c(cc1N=C(S)Nc1ccccc1C)oc1ccccc12
IC50 (Large T antigen): 56.4 µM (active) | IC50 [12]: 83.9 µM (active)
